assay: storage of the aqueous salt solution at room temperature under nitrogen; type: physicochemical; conditions: ~10% aqueous solution, stored for several days at room temperature under nitrogen
Method: Naringenin (500 mg, 1.84 mmol) was suspended in water (2 mL) and while stirring a solution of NaOH (2 equiv.) in water (3 mL) was added dropwise. After addition was complete, the reaction was bubbled with nitrogen and stirring continued until the solution became homogeneous. […] MS 273 (M+3H−2Na)^+.
Naringenin (500 mg, 1.84 mmol) was suspended in water (2 mL) and while stirring a solution of KOH (2 equiv.) in water (3 mL) was added dropwise. After addition was complete, the reaction was bubbled with nitrogen and stirring continued until the solution became homogeneous. […] MS 273 (M+3H−2K)^+.
Phloterin (500 mg, 1.82 mmol) was suspended in water (2 mL) and while stirring a solution of NaOH (2 equiv.) in water (3 mL) was added dropwise. After addition was complete, the reaction was bubbled with nitrogen and stirring continued until the solution became homogeneous. […] MS 275 (M+3H−2Na)^+.
Phloterin (500 mg, 1.82 mmol) was suspended in water (2 mL) and while stirring a solution of KOH (2 equiv.) in water (3 mL) was added dropwise. After addition was complete, the reaction was bubbled with nitrogen and stirring continued until the solution became homogeneous. […] MS 275 (M+3H−2K)^+.

| SMILES | stability of the solution on storage |
| --- | --- |
| O=C(CCc1ccc(O)cc1)c1c(O)cc(O)cc1O.[Na].[Na] [Example 3, Disodium Salt of Phloterin] | without any significant change |
| O=C(CCc1ccc(O)cc1)c1c(O)cc(O)cc1O.[K].[K] [Example 4, Dipotassium Salt of Phloterin] | without any significant change |
| O=C1C[C@@H](c2ccc(O)cc2)Oc2cc(O)cc(O)c21.[Na].[Na] [Example 1, Disodium Salt of Naringenin] | without any significant change |
| O=C1C[C@@H](c2ccc(O)cc2)Oc2cc(O)cc(O)c21.[K].[K] [Example 2, Dipotassium Salt of Naringenin] | without any significant change |
